Reference: patent US20220204560A1, “NOVEL OLIGOPEPTIDE, AND PHARMACEUTICAL COMPOSITION FOR PREVENTING OR TREATING CANCER, COMPRISING THE SAME AS AN ACTIVE INGREDIENT” (L-BASE CO., LTD., priority 2019, published 2022)

Legend:
[1] = tested on: breast cancer cell line MDA-MB-231; assay: Clonogenic assay, colony formation suppression, breast cancer cell line MDA-MB-231; type: cell-based; details: MDA-MB-231, 100 μM or 500 μM, 14 days, compared to control group (FIG. 4)
[2] = tested on: breast cancer cell line HCC70; assay: CellTiter-Glo Luminescent (CTG) assay, cell activity suppression, breast cancer cell line HCC70; type: cell-based; details: HCC70, 100 μM or 500 μM, 72 hours, compared to control group (FIG. 5)

AQTITGKT (Oligopeptide #1 AQTITGKT) [oligopeptide of General Formula A-Q-T-X-T-G-K-T, X is isoleucine]
suppression of colony formation (clonogenic assay) [1]: significant effects on suppression of the colony formation
suppression of the activity of cancer cells (amount of ATP, CTG assay) [2]: significant effects on suppression of the colony formation and the activity of cancer cells

AQTLTGKT
suppression of colony formation (clonogenic assay) [1]: significant effects on suppression of the colony formation
suppression of the activity of cancer cells (amount of ATP, CTG assay) [2]: significant effects on suppression of the colony formation and the activity of cancer cells
